For 60 compounds, LC retention time results are on record in the RepoRT retention time repository (doi:10.1021/acs.analchem.1c00972).

A short description of this data set: RP, Waters ACQUITY UPLC BEH C18, 100 × 1 mm, 1.7 µm, 50 °C, 0.3 mL/min, estimated dead time 0.17 min; A: water + 0.1% formic acid + 20 mM ammonium formate; B: methanol + 0.1% formic acid + 20 mM ammonium formate; gradient (min/%B) 0/0 15/100 21/100 22/0 30/0. The settings on record: stereoisomer not certain.
`O=[N+]([O-])c1ccc(C2OC2c2ccc([N+](=O)[O-])cc2S(=O)(=O)O)c(S(=O)(=O)O)c1` (stereo not given): the LC retention time is 11.5 min.

Consider `CC(C)(C)Nc1nc(=O)[nH]c(=O)[nH]1`, for which the LC retention time is 13.3 min.

With `CNC(=O)NCc1cnc(Cl)s1`, the LC retention time was 7.69 min.

Regarding `CC1(C)C2CC=C(CO)C1C2` (single isomer, unassigned; (-)) [(-)-Myrtenol], the LC retention time was 11.5 min.

Turning to `CC(C)C1CCC(Cc2ccc(Cl)cc2)C1(O)Cn1cncn1` (single isomer, unassigned; isomer 1) [Ipconazole (Isomer 1)], the LC retention time is 16.4 min.

On to `CC(C)(N)CN` [1,2-Diamino-2-methylpropane], for which the LC retention time was 18.5 min.

Consider `CN1CCN(C)C1=O` [1,3-Dimethyl-2-imidazolidinone], for which the LC retention time is 6.1 min.

As for `Cn1c(=O)c2[nH]c(=O)[nH]c2n(C)c1=O` [1,3-Dimethyluric acid], the LC retention time was 5.8 min.

On to `Nc1ccc2nc3c(N)cccc3nc2c1` [1,7-Diaminophenazine], for which the LC retention time is 8.24 min.

On to `CC(C)c1ccc(NC(N)=O)cc1` [1-(4-Isopropylphenyl)-Harnstoff], for which the LC retention time is 12.3 min.

As to `Cc1nccc2ccccc12` [1-Methylisochinolin], the LC retention time is 6.14 min.

On to `CC(C)NC(=O)NC(C)C` [1.3-Diisopropylurea], for which the LC retention time is 8.54 min.

Regarding `O=c1ccn(C2OC(CO)C(O)C2(F)F)c(=O)[nH]1` (stereo not given) [2',2'-Difluoro-2'-deoxyuridine], the LC retention time was 4.8 min.

As for `Nc1ccc(Cl)cc1Cl` [2,4-Dichloroaniline], the LC retention time was 17.6 min.

In the case of `Nc1c(Cl)cccc1Cl` [2,6-Dichloroaniline], the LC retention time is 17.6 min.

As to `Nc1ccc2nc3ccc(N)cc3nc2c1` [2,8-Diaminophenazine], the LC retention time is 8.24 min.

For the compound `OCCc1cccc(O)c1` [2-(3-Hydroxyphenyl)ethanol], the LC retention time was 2.8 min.

Consider `CCN(CCO)c1cccc(C)c1` [2-(N-Ethyl-N-m-toluidino)ethanol], for which the LC retention time is 6.13 min.

Take `CC(=O)c1ccc2ccccc2c1` [2-Acetonaphthone]: the LC retention time was 13.5 min.

As to `COc1nc(C)nc(N)n1` [2-Amino-4-methoxy-6-methyl-1.3.5-triazine (MMT)], the LC retention time was 5.15 min.

Turning to `Nc1nc2ccccc2[nH]1` [2-Aminobenzimidazole], the LC retention time is 6.08 min.

Turning to `CCOc1ccccc1C(N)=O` [2-Ethoxybenzamide], the LC retention time was 10.1 min.

With `COc1cccc(CO)c1O` [2-Hydroxy-3-methoxybenzyl alcohol], the LC retention time is 9 min.

For `Cn1sccc1=O` [2-Methyl-4-isothiazolin-3-one], the LC retention time was 3.3 min.

As for `Cc1ccccc1O` [2-Methylphenol], the LC retention time was 14.3 min.

In the case of `Nc1ccc(Cl)c(Cl)c1` [3,4-Dichloroaniline], the LC retention time is 17.6 min.

For the compound `O=C(O)c1cc(Br)c(O)c(Br)c1` [3,5-Dibromo-4-hydroxybenzoic acid], the LC retention time is 11.4 min.

With `Nc1cc(Cl)cc(Cl)c1` [3,5-Dichloroaniline], the LC retention time was 17.6 min.

As to `CCCCCCCCSCCOCCOCCOCCO` [3,6,9-Trioxa-12-thia-eicosanol], the LC retention time was 18.3 min.

Consider `OCCc1c[nH]c2ccccc12` [3-(2-Hydroxyethyl)indole], for which the LC retention time was 7 min.

`Cc1ccc(N)cc1Cl` [3-Chloro-4-methylaniline]: the LC retention time is 10.1 min.

As to `CCCCCCCC(O)CC(=O)O` (stereo not given) [3-Hydroxycapric acid], the LC retention time is 12.3 min.

Turning to `O=C(O)CCc1c[nH]c2ccccc12` [3-Indolepropionic acid], the LC retention time was 11.7 min.

On to `Cc1cccc(O)c1` [3-Methylphenol], for which the LC retention time is 14.3 min.

As to `Nc1ccc(C=Cc2ccc(N)cc2S(=O)(=O)O)c(S(=O)(=O)O)c1` [4,4'-Diaminostilbene-2,2'-disulfonic acid], the LC retention time was 9.71 min.

In the case of `Nc1cc(Cl)c(S(N)(=O)=O)cc1S(N)(=O)=O` [4-Amino-6-chloro-1,3-benzenedisulfonamide], the LC retention time is 3.6 min.

With `Cc1c(N)c(=O)n(-c2ccccc2)n1C` [4-Aminoantipyrine], the LC retention time is 7.28 min.

In the case of `Nc1ccc(Br)cc1` [4-Bromoaniline], the LC retention time is 8.49 min.

Turning to `O=c1cc(O)c2ccccc2o1` [4-Hydroxycoumarin], the LC retention time was 10.7 min.

As to `CC(C)c1ccc(N)cc1` [4-Isopropylaniline], the LC retention time is 9.8 min.

Turning to `Cc1ccc(O)cc1` [4-Methylphenol], the LC retention time was 14.3 min.

As to `CC(=O)c1ccc(N)cc1` [4-aminoacetophenone], the LC retention time was 2.5 min.

Turning to `CCCCCCCCc1ccc(O)cc1` [4-n-Octylphenol], the LC retention time was 16.9 min.

`Cc1cc2n[nH]nc2cc1C` [5,6-Dimethyl-1,1,1-benzotriazol]: the LC retention time was 11.2 min.

As to `O=c1cc(-c2ccccc2)c2c(O)cc(O)cc2o1` [5,7-Dihydroxy-4-phenylcoumarin], the LC retention time was 12.1 min.

With `Cc1ccc(N)cc1O` [5-Amino-o-cresol], the LC retention time is 3.69 min.

Take `O=C(O)Cc1c[nH]c2ccc(O)cc12` [5-Hydroxyindole-3-acetic acid]: the LC retention time was 6.7 min.

Regarding `Cc1ccc2n[nH]nc2c1` [5-Methyl-1-H-benzotriazol], the LC retention time was 9.89 min.

For `CC(=O)C1CCC2C3CC=C4CC(O)CCC4(C)C3CCC12C` (stereo not drawn) [5-Pregnen-3.beta.-ol-20-one], the LC retention time was 15.2 min.

Regarding `CC(C)=CCc1c(O)cc(O)c2c1OC(c1ccc(O)cc1)CC2=O` (stereo not given) [8-Prenylnaringenin], the LC retention time is 14.5 min.

Turning to `CC(C=CC1=C(C)CCCC1(C)C)=CC=CC(C)=CC(=O)O` [9-cis-Retinoic acid], the LC retention time is 16 min.

Regarding `CCCC(=O)Nc1ccc(OCC(O)CNC(C)C)c(C(C)=O)c1` (stereo not given) [Acebutolol], the LC retention time was 15.9 min.

With `CC(=NC#N)N(C)Cc1ccc(Cl)nc1` [Acetamiprid], the LC retention time was 9.33 min.

Regarding `CCOCN(C(=O)CS(=O)(=O)O)c1c(C)cccc1CC` [Acetochlor ESA], the LC retention time is 11.9 min.

Regarding `CCOCN(C(=O)C(=O)O)c1c(C)cccc1CC` [Acetochlor OA], the LC retention time was 15.5 min.

On to `CC(=O)Oc1ccccc1C(=O)O` [Acetylsalicyls<e4>ure], for which the LC retention time was 16.5 min.

In the case of `N#CCCCCC#N` [Adiponitrile], the LC retention time is 5.21 min.

As to `C=C1C(O)C2(O)OCC34C(CC5C(C)=CC(=O)C(O)C5(C)C23)OC(=O)CC14` (stereo not given) [Ailanthone], the LC retention time was 7.89 min.

With `CCc1cccc(CC)c1N(COC)C(=O)CS(=O)(=O)O` [Alachlor tert-sulfonic acid (ESA)], the LC retention time was 11.8 min.

As for `CC(C)(C)NCC(O)c1ccc(O)c(CO)c1` (stereo not given) [Albuterol], the LC retention time is 6 min.
